{"source": "PubChem BioAssay AID2060893", "about": "(Molecular Pharmacology Branch, DTP, NCI, 2025)"}
{"tested_on": "K86415-001-R-J1-PDC complex spheroids, viability", "assay": "Anticancer human tumor K86415-001-R-J1-PDC patient-derived lung adenocarcinoma cell line growth inhibition [RAS]", "settings": "curve of first compound; second compound 0.00316 µM", "how_it_was_run": "(§1)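 Agents were tested in combination matrices in half-log decrements from a top concentration at or near clinical Cmax (10 microM if undetermined). Targets were multi-cell spheroids of tumour lines plus HUVEC and MSC stromal cells.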", "units": {"IC50": "nM"}}
{"smiles": "CC(C)NCC(C(=O)N1CCN(c2ncnc3c2C(C)CC3O)CC1)c1ccc(Cl)cc1", "note": "(stereo unspecified) + C=CC(=O)N1CCN(c2nc(OCC3CCCN3C)nc3c(F)c(-c4nc(N)cc(C)c4C(F)(F)F)c(Cl)cc23)C(C)C1", "IC50": "< 31.6"}
{"smiles": "CC(C)n1nc(-c2ccc3oc(N)nc3c2)c2c(N)ncnc21", "note": "+ C=CC(=O)N1CCN(c2nc(OCC3CCCN3C)nc3c(F)c(-c4nc(N)cc(C)c4C(F)(F)F)c(Cl)cc23)C(C)C1", "IC50": "< 0.316"}
{"smiles": "CC(Nc1ccc2c(c1)OCCn1cc(N3C(=O)OCC3C(F)F)nc1-2)C(N)=O", "note": "(stereo unspecified) + C=CC(=O)N1CCN(c2nc(OCC3CCCN3C)nc3c(F)c(-c4nc(N)cc(C)c4C(F)(F)F)c(Cl)cc23)C(C)C1", "IC50": "< 31.6"}
{"smiles": "C[C@@H](NC(=O)c1ncnc(N)c1Cl)c1ncc(C(=O)Nc2cc(C(F)(F)F)c(Cl)cn2)s1", "note": "+ C=CC(=O)N1CCN(c2nc(OCC3CCCN3C)nc3c(F)c(-c4nc(N)cc(C)c4C(F)(F)F)c(Cl)cc23)C(C)C1", "IC50": "< 31.6"}
{"smiles": "O=C(c1ccc(F)c(F)c1Nc1ccc(I)cc1F)N1CC(O)([C@@H]2CCCCN2)C1", "note": "+ C=CC(=O)N1CCN(c2nc(OCC3CCCN3C)nc3c(F)c(-c4nc(N)cc(C)c4C(F)(F)F)c(Cl)cc23)C(C)C1", "IC50": "< 3.16"}
{"tested_on": "K86415-001-R-J1-PDC complex spheroids, viability", "assay": "Anticancer human tumor K86415-001-R-J1-PDC cell line growth inhibition [RAS];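 also: spheroids exposed to agents for seven days before readout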", "settings": "curve of first compound; second compound 0.01 µM", "how_it_was_run": "as §1", "units": {"IC50": "nM"}}
{"smiles": "CC(C)NCC(C(=O)N1CCN(c2ncnc3c2C(C)CC3O)CC1)c1ccc(Cl)cc1", "note": "(stereo unspecified) + C=CC(=O)N1CCN(c2nc(OCC3CCCN3C)nc3c(F)c(-c4nc(N)cc(C)c4C(F)(F)F)c(Cl)cc23)C(C)C1", "IC50": "< 31.6"}
{"smiles": "CC(C)n1nc(-c2ccc3oc(N)nc3c2)c2c(N)ncnc21", "note": "+ C=CC(=O)N1CCN(c2nc(OCC3CCCN3C)nc3c(F)c(-c4nc(N)cc(C)c4C(F)(F)F)c(Cl)cc23)C(C)C1", "IC50": "< 0.316"}
{"smiles": "CC(Nc1ccc2c(c1)OCCn1cc(N3C(=O)OCC3C(F)F)nc1-2)C(N)=O", "note": "(stereo unspecified) + C=CC(=O)N1CCN(c2nc(OCC3CCCN3C)nc3c(F)c(-c4nc(N)cc(C)c4C(F)(F)F)c(Cl)cc23)C(C)C1", "IC50": "< 31.6"}
{"smiles": "C[C@@H](NC(=O)c1ncnc(N)c1Cl)c1ncc(C(=O)Nc2cc(C(F)(F)F)c(Cl)cn2)s1", "note": "+ C=CC(=O)N1CCN(c2nc(OCC3CCCN3C)nc3c(F)c(-c4nc(N)cc(C)c4C(F)(F)F)c(Cl)cc23)C(C)C1", "IC50": "< 31.6"}
{"smiles": "O=C(c1ccc(F)c(F)c1Nc1ccc(I)cc1F)N1CC(O)([C@@H]2CCCCN2)C1", "note": "+ C=CC(=O)N1CCN(c2nc(OCC3CCCN3C)nc3c(F)c(-c4nc(N)cc(C)c4C(F)(F)F)c(Cl)cc23)C(C)C1", "IC50": "< 3.16"}
{"tested_on": "K86415-001-R-J1-PDC complex spheroids, viability", "assay": "Anticancer human tumor K86415-001-R-J1-PDC cell line growth inhibition [RAS];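 also: spheroids exposed to agents for seven days before readout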", "settings": "curve of first compound; second compound 0.0316 µM", "how_it_was_run": "as §1", "units": {"IC50": "nM"}}
{"smiles": "CC(C)NCC(C(=O)N1CCN(c2ncnc3c2C(C)CC3O)CC1)c1ccc(Cl)cc1", "note": "(stereo unspecified) + C=CC(=O)N1CCN(c2nc(OCC3CCCN3C)nc3c(F)c(-c4nc(N)cc(C)c4C(F)(F)F)c(Cl)cc23)C(C)C1", "IC50": "< 31.6"}
{"smiles": "CC(C)n1nc(-c2ccc3oc(N)nc3c2)c2c(N)ncnc21", "note": "+ C=CC(=O)N1CCN(c2nc(OCC3CCCN3C)nc3c(F)c(-c4nc(N)cc(C)c4C(F)(F)F)c(Cl)cc23)C(C)C1", "IC50": "< 0.316"}
{"smiles": "CC(Nc1ccc2c(c1)OCCn1cc(N3C(=O)OCC3C(F)F)nc1-2)C(N)=O", "note": "(stereo unspecified) + C=CC(=O)N1CCN(c2nc(OCC3CCCN3C)nc3c(F)c(-c4nc(N)cc(C)c4C(F)(F)F)c(Cl)cc23)C(C)C1", "IC50": "< 31.6"}
{"smiles": "C[C@@H](NC(=O)c1ncnc(N)c1Cl)c1ncc(C(=O)Nc2cc(C(F)(F)F)c(Cl)cn2)s1", "note": "+ C=CC(=O)N1CCN(c2nc(OCC3CCCN3C)nc3c(F)c(-c4nc(N)cc(C)c4C(F)(F)F)c(Cl)cc23)C(C)C1", "IC50": "< 31.6"}
{"smiles": "O=C(c1ccc(F)c(F)c1Nc1ccc(I)cc1F)N1CC(O)([C@@H]2CCCCN2)C1", "note": "+ C=CC(=O)N1CCN(c2nc(OCC3CCCN3C)nc3c(F)c(-c4nc(N)cc(C)c4C(F)(F)F)c(Cl)cc23)C(C)C1", "IC50": "< 3.16"}
{"tested_on": "K86415-001-R-J1-PDC complex spheroids, viability", "assay": "Anticancer human tumor K86415-001-R-J1-PDC cell line growth inhibition [RAS];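 also: spheroids exposed to agents for seven days before readout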", "settings": "curve of first compound; second compound 0.1 µM", "how_it_was_run": "as §1", "units": {"IC50": "nM"}}
{"smiles": "CC(C)NCC(C(=O)N1CCN(c2ncnc3c2C(C)CC3O)CC1)c1ccc(Cl)cc1", "note": "(stereo unspecified) + C=CC(=O)N1CCN(c2nc(OCC3CCCN3C)nc3c(F)c(-c4nc(N)cc(C)c4C(F)(F)F)c(Cl)cc23)C(C)C1", "IC50": "< 31.6"}
{"smiles": "CC(C)n1nc(-c2ccc3oc(N)nc3c2)c2c(N)ncnc21", "note": "+ C=CC(=O)N1CCN(c2nc(OCC3CCCN3C)nc3c(F)c(-c4nc(N)cc(C)c4C(F)(F)F)c(Cl)cc23)C(C)C1", "IC50": "< 0.316"}
{"smiles": "CC(Nc1ccc2c(c1)OCCn1cc(N3C(=O)OCC3C(F)F)nc1-2)C(N)=O", "note": "(stereo unspecified) + C=CC(=O)N1CCN(c2nc(OCC3CCCN3C)nc3c(F)c(-c4nc(N)cc(C)c4C(F)(F)F)c(Cl)cc23)C(C)C1", "IC50": "< 31.6"}
{"smiles": "C[C@@H](NC(=O)c1ncnc(N)c1Cl)c1ncc(C(=O)Nc2cc(C(F)(F)F)c(Cl)cn2)s1", "note": "+ C=CC(=O)N1CCN(c2nc(OCC3CCCN3C)nc3c(F)c(-c4nc(N)cc(C)c4C(F)(F)F)c(Cl)cc23)C(C)C1", "IC50": "< 31.6"}
{"smiles": "O=C(c1ccc(F)c(F)c1Nc1ccc(I)cc1F)N1CC(O)([C@@H]2CCCCN2)C1", "note": "+ C=CC(=O)N1CCN(c2nc(OCC3CCCN3C)nc3c(F)c(-c4nc(N)cc(C)c4C(F)(F)F)c(Cl)cc23)C(C)C1", "IC50": "< 3.16"}
{"tested_on": "K86415-001-R-J1-PDC complex spheroids, viability", "assay": "Anticancer human tumor K86415-001-R-J1-PDC cell line growth inhibition [RAS];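 also: spheroids exposed to agents for seven days before readout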", "settings": "curve of first compound; second compound 0.316 µM", "how_it_was_run": "as §1", "units": {"IC50": "nM"}}
{"smiles": "CC(C)NCC(C(=O)N1CCN(c2ncnc3c2C(C)CC3O)CC1)c1ccc(Cl)cc1", "note": "(stereo unspecified) + C=CC(=O)N1CCN(c2nc(OCC3CCCN3C)nc3c(F)c(-c4nc(N)cc(C)c4C(F)(F)F)c(Cl)cc23)C(C)C1", "IC50": "< 31.6"}
{"smiles": "CC(C)n1nc(-c2ccc3oc(N)nc3c2)c2c(N)ncnc21", "note": "+ C=CC(=O)N1CCN(c2nc(OCC3CCCN3C)nc3c(F)c(-c4nc(N)cc(C)c4C(F)(F)F)c(Cl)cc23)C(C)C1", "IC50": "< 0.316"}
{"smiles": "CC(Nc1ccc2c(c1)OCCn1cc(N3C(=O)OCC3C(F)F)nc1-2)C(N)=O", "note": "(stereo unspecified) + C=CC(=O)N1CCN(c2nc(OCC3CCCN3C)nc3c(F)c(-c4nc(N)cc(C)c4C(F)(F)F)c(Cl)cc23)C(C)C1", "IC50": "< 31.6"}
{"smiles": "C[C@@H](NC(=O)c1ncnc(N)c1Cl)c1ncc(C(=O)Nc2cc(C(F)(F)F)c(Cl)cn2)s1", "note": "+ C=CC(=O)N1CCN(c2nc(OCC3CCCN3C)nc3c(F)c(-c4nc(N)cc(C)c4C(F)(F)F)c(Cl)cc23)C(C)C1", "IC50": "< 31.6"}
{"smiles": "O=C(c1ccc(F)c(F)c1Nc1ccc(I)cc1F)N1CC(O)([C@@H]2CCCCN2)C1", "note": "+ C=CC(=O)N1CCN(c2nc(OCC3CCCN3C)nc3c(F)c(-c4nc(N)cc(C)c4C(F)(F)F)c(Cl)cc23)C(C)C1", "IC50": "< 3.16"}
{"tested_on": "K86415-001-R-J1-PDC complex spheroids, viability", "assay": "Anticancer human tumor K86415-001-R-J1-PDC cell line growth inhibition [RAS];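 also: spheroids exposed to agents for seven days before readout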", "settings": "curve of first compound; second compound 1 µM", "how_it_was_run": "as §1", "units": {"IC50": "nM"}}
{"smiles": "CC(C)NCC(C(=O)N1CCN(c2ncnc3c2C(C)CC3O)CC1)c1ccc(Cl)cc1", "note": "(stereo unspecified) + C=CC(=O)N1CCN(c2nc(OCC3CCCN3C)nc3c(F)c(-c4nc(N)cc(C)c4C(F)(F)F)c(Cl)cc23)C(C)C1", "IC50": "< 31.6"}
